Patent US20050251869A1, “Animal model for raising HDL-cholesterol with niacin” (priority 2004, published 2005)
Where two headings read alike, the source gives them in different places.

Experiments:
[1] = system: human-CETP/human-apoA1 dual-transgenic mice; settings: 1% niacin in diet, one week
Source text: In addition, hemizygous human-CETP/human-apolipoprotein A1 dual-transgenic mice were generated by cross-breeding homozygous human-CETP transgenic male mice, purchased from Taconic, with homozygous human-apolipoprotein A1 transgenic female mice, purchased from Jackson Laboratories.
Methods: Mice used in this study express both human CETP and human apolipoprotein A1 genes. The mice were generated by cross-breeding homozygous human-CETP transgenic male mice with homozygous female human-apolipoprotein A1-transgenic mice. Female mice (˜10 weeks of age, 10/group) were fed a normal rodent chow diet (Purina 7012) with or without 1% niacin (milled with the feed). They were housed with normal lighting and were allowed access to food and water ad lib. After seven days of treatment, the mice were fasted for four hours and then euthanized. Blood samples were collected by cardiac puncture. Serum lipids (total cholesterol, HDL-cholesterol, TG and FFA, and lipoprotein profiles) were determined.

[2] = system: wild type C57BI/6J control mice; settings: for change in HDL-C compared with untreated WT mice: 1% niacin in diet
Source text: (§1) Materials: The mice used in these studies were pathogen-free C57BI/6J mice of the following genotypes: (1) wild type; (2) hemizygous human CETP-transgenic (hCETP-tg); (3) hemizygous human apoB100-transgenic, and 4) hemizygous human CETP and apoB100 dual-transgenic mice. The transgenic mice were purchased from Taconic Laboratories, Germantown, N.Y., where they were generated by introduction of genomic DNA fragments that drive expression of human CETP and/or apoB100 in the mouse liver (8-10).
(§2) Methods: Male mice (hCETP-tg and wild type C57BI/6J control mice; ˜10 weeks of age; 5-7/group) were used in this study. The mice were fed a normal rodent chow diet (Purina 7012) along with varying levels of niacin (milled with diet, expressed as % by weight of diet). They were housed with normal lighting and were allowed access to food and water ad lib. Blood samples were obtained by retro-orbital plexus at one, two and three weeks of treatment. After the fourth week of treatment, the mice were fasted for four hours and then euthanized. After euthanization, blood samples were collected by cardiac puncture. Serum lipids (total cholesterol, HDL-cholesterol, TG and FFA, and lipoprotein profiles) were determined. Serum samples from four weeks of treatment were also measured for CETP enzyme activity.

[3] = system: hemizygous human-CETP/ApoB100 dual transgenic mice
Source text: Methods: This example is a study of the lipid modulating effect of niacin in human CETP and Apo-B100 dual transgenic mice. These mice have a more human-like lipoprotein profile than WT mice, with a lower HDUnon-HDL-C ratio.
Mice (hemizygous human-CETP/ApoB100 dual transgenic mice, ˜10 weeks of age, 7-8/group) were fed a normal rodent chow diet (Purina 7012) along with varying levels of niacin (milled with the feed). They were housed with normal lighting and were allowed access to food and water ad lib. Blood samples were obtained by retro-orbital plexus after one week of treatment. After two weeks of treatment, the mice were fasted for four hours and then euthanized. Blood samples were collected by cardiac puncture. Serum lipids (total cholesterol, HDL-cholesterol, TG and FFA, and lipoprotein profiles) were determined.

[4] = system: human ApoB 100 transgenic mice; settings: experiments similar to Examples 1 and 2
Source text: as §1

[5] = system: hemizygous human CETP-transgenic (hCETP-tg) mice; experiment: Example 1: four-week niacin-in-diet study, serum lipids, hCETP-tg mice; assay type: in vivo, mouse; settings: for change in HDL-C compared with untreated h-CETP-tg mice: 1% niacin in diet
Source text: as §1, §2

[6] = system: hCETP-tg mice; settings: for increase of HDL-C / reduction of TG: 1% niacin in diet
Source text: as §2
Blood samples were obtained by retro-orbital plexus after one week of treatment, as in Example 1. After two weeks of treatment, the mice were fasted for four hours and then euthanized. Blood samples were collected by cardiac puncture. Serum lipids (total cholesterol, HDL-cholesterol, total triglyceride and FFA) were determined.

[7] = one week of treatment with niacin in diet
[8] = size exclusion chromatography, after two weeks of treatment
[9] = hCETP-tg mice, niacin in diet, appears dose-dependent
[10] = lipoprotein profiles by size exclusion chromatography

O=C(O)c1cccnc1 [niacin, nicotinic acid]
elevation of HDL-C ([1]; female mice): ~38% | reduction of TG ([1]; female mice): 53% | reduction of non-HDL-C ([1]; female mice): 39% | Non-HDL-C ([1]; male mice): did not change significantly | elevation of HDL-C ([1]; male mice): 27% | reduction of TG ([1]; male mice): 36% | change in HDL-C compared with untreated WT mice ([2]; 1 week): −9% | change in HDL-C compared with untreated WT mice ([2]; 2 weeks): −17% | change in HDL-C compared with untreated WT mice ([2]; 3 weeks): −13% | change in HDL-C compared with untreated WT mice ([2]; 4 weeks): −7% | serum lipids, including TG, total cholesterol, HDL-C, non-HDL-C, and FFA ([2]; wild-type control mice, niacin in diet): broad reduction | increase in HDL-C ([3]; 0.1% niacin in diet, two weeks): 41% | decrease in HDL-C ([3]; 0.3% niacin in diet, two weeks): 5% | increase in HDL-C ([3]; 1% niacin in diet, two weeks): 15% | TC and TG [3, 7]: decrease | amount of HDL-C [3, 7]: without a significant change | TG in the VLDL and LDL fractions [3, 8]: decrease | cholesterol in the HDL fractions [3, 8]: increase | cholesterol in the LDL fractions [3, 8]: decrease | level of HDL-C [4]: does not raise | change in HDL-C compared with untreated h-CETP-tg mice ([5]; 1 week): +40% | change in HDL-C compared with untreated h-CETP-tg mice ([5]; 2 weeks): +38% | change in HDL-C compared with untreated h-CETP-tg mice ([5]; 3 weeks): +37% | change in HDL-C compared with untreated h-CETP-tg mice ([5]; 4 weeks): +23% | FFA [5, 9]: reduction | HDL-cholesterol [5, 9]: increase | TG [5, 9]: reduction | non-HDL cholesterol [5, 9]: reduction | TG in the VLDL fractions [5, 10]: decline | cholesterol in the HDL fractions [5, 10]: rise | increase of HDL-C ([6]; one week of treatment): 35% | reduction of TG ([6]; one week of treatment): 44% | increase of HDL-C ([6]; two weeks of treatment): 37% | reduction of TG ([6]; two weeks of treatment): 45% | HDL particle size [6, 10]: without significant change | TG contents of VLDL, LDL and HDL particles [6, 10]: all reduced | cholesterol content in the HDL particles [6, 10]: increase | cholesterol content of the LDL and VLDL particles [6, 10]: reduced
